Consider one compound from US7563805B2, “Tri-, tetra-substituted-3-aminopyrrolidine derivative” (Daiichi Pharmaceutical Co., Ltd., priority 2005, dated 2009).

Converted amounts (≈) assume the structure as drawn. Like-named read-outs stand apart in the source and are kept apart here.

One may read the MIC as the lowest concentration found to suppress growth. Read a high MIC as a need for much substance.

Details of data set [1]: species or system guinea pigs (Slc:Hertley). Particulars: male, Slc:Hertley, guinea pig, in vivo. As to the method: Guinea pig maximization test (GPMT) which is a widely accepted model for delayed antigenicity was conducted according to the method of Mugnusson et al. (J. invest. Dermatol., 52, 1969) by using a cutaneous sensitization concentration of 1% and a patch sensitization and induction concentration of 10%. At day 1, the animal was sensitized by cutaneously administering the test substance (the quinolone compounds and the control: vehicle, vaseline) (1% solution in physiological saline+FCA emulsion) at the back of the head of the shaved guinea pigs (7 week old male Slc:Hertley). At day 7, lauryl sodium sulfate (SLC) was applied for stimulus (adjuvant treatment), and on the next day, the test substance coated on a wax paper was patched onto the shaved skin to for sealed sensitization, and after 48 hours (at day 10), the waxed paper was removed. The skin reaction was observed upon the removal. On day 22, the test substance (10%) was patched onto the anterior side of the body for induction, and the induction patching was removed after 24 hours. On the next day (at day 24) and the next day (at day 25), the skin reaction was evaluated according to the description of the document as mentioned above. Erythema and edema were scored, and the case with the total score of 2 or higher was evaluated to be positive with the maximum of the score being 7.

The next data set concerns E. coli NIHJ. In words: antibacterial activity (MIC), standard method of Japanese Society of Chemotherapy. The note with it: Escherichia coli.
For another data set, the system named is S. epidermidis, 56500. The description is as above. The note with it: Staphylococcus epidermidis, 56500, S. epidermidis.
The next data set deals with CYP3A4 (Homo sapiens, UniProt P08684). Nature of the data set: mechanism-based inhibition (MBI) of CYP3A4, hydroxylation at position 1 of midazolam. The note with it: inhibition of midazolam 1-hydroxylation; dependence on preincubation time and drug concentration (FIG. 1).
Chain of CYP3A4 (P08684 whole entry): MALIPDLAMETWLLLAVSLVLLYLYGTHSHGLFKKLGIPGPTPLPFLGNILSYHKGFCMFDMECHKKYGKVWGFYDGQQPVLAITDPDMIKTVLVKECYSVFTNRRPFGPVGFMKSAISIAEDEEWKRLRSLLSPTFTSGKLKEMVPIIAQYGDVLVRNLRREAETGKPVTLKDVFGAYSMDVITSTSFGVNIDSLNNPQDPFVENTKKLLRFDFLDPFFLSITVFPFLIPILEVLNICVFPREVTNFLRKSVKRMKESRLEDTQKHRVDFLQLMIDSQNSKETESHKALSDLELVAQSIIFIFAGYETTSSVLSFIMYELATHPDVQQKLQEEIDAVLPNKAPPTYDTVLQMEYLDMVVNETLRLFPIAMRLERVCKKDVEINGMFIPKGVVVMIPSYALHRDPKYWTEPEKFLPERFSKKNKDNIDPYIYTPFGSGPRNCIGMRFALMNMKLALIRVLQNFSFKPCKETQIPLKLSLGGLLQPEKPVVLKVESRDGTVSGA
For data set [2] the following is noted: rat, in vivo, po.
Procedure: The Comparative compound was also evaluated by the same procedure.
The test substance was orally administered to fasted rats (7 week old male Crj:CD IGS rats purchased from Charles River Laboratories Japan, Inc.) at a dose of 5 mg/kg.
Animals of absorption test group (3 animals per group) were sacrificed by bleeding under etherization at 0.25, 0.5, 1, 2, 4, and 8 hours after the drug administration, and blood, lever, kidney, and lung were collected. The blood was centrifuged (3000 rpm×15 minutes, 4° C.) after coagulation to collect serum. Tissue was homogenized after adding 3 to 5 mL of 0.1 mol/l phosphate buffer (pH 7.0), and the supernatant was collected from the homogenate (3000 rpm×15 minutes, 4° C.).
Animals of excretion test group (3 animals per group) were placed in a metabolic cage, and the urine of 0 to 4 hours and 4 to 24 hours after the administration was collected in a water-cooled container. Simultaneously with the collection of the urine, the cage was also washed with about 15 mL of 0.1 mol/l phosphate buffer (pH 7.0) to collect the urine attached to the cage. For evaluation of conjugates such as glucuronide, the collected sample was also aliquoted and hydrolyzed with an equal amount of 1 mol/l aqueous solution of sodium hydroxide, and the hydrolysate was neutralized with 0.5 mol/l hydrochloric acid and measured for its concentration. The concentration was measured by LC-MS/MS method.
Pharmacokinetic parameters of the each drug in rat were calculated by from the time course of the average concentration by using pharmacokinetic analysis software PSAG-CP (AS Medica Inc.) in a manner not dependent on the model animal.
Data set [3] is classed as in vivo. The note with it: 30 minutes observation. The method, then:
The test substance was intracisternally administered to male Slc:ddy mice (6 animals per group), and the convulsion and death were monitored for each cage until 30 minutes after the administration. The test substance was dissolved in 5 μl of 1% aqueous solution of lactic acid, and the dose was 5, 15, or 50 μg per animal.
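Throughout, for Excretion rate in urine, times higher than Comparative compound 1: fasted 7-week-old rats, three per group, tissue sampled up to 8 h post-dose and urine collected over 0–24 h, with conjugates measured after alkaline hydrolysis, concentrations by LC-MS/MS.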
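Throughout, for Recovery (%) in urine in relation to the amount administered, Recovery (%) including conjugate: fasted 7-week-old rats, three per group, tissue sampled up to 8 h post-dose and urine collected over 0–24 h, with conjugates measured after alkaline hydrolysis, concentrations by LC-MS/MS.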
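Throughout, for Tissue AUC0-8 h, Kidney: fasted 7-week-old rats, three per group, tissue sampled up to 8 h post-dose and urine collected over 0–24 h, with conjugates measured after alkaline hydrolysis, concentrations by LC-MS/MS.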
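Throughout, for serum concentration and tissue concentration, times higher than Comparative compound 1: fasted 7-week-old rats, three per group, tissue sampled up to 8 h post-dose and urine collected over 0–24 h, with conjugates measured after alkaline hydrolysis, concentrations by LC-MS/MS.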

Procedure for CYP3A4: Mechanism-based inhibition (MBI) of CYP3A4 was evaluated by using inhibition of hydroxylation at position 1 of midazolam.

Turning to `COc1c(N2CC(C)(N)C3(CC3)C2)c(F)cc2c(=O)c(C(=O)O)cn([C@@H]3C[C@@H]3F)c12` (stereo partly drawn) [Example 9, 7-(7-Amino-7-methyl-5-azaspiro[2.4]heptan-5-yl)-6-fluoro-1-[(1R,2S)-2-fluorocyclopropyl]-8-methoxy-1,4-dihydro-4-oxoquinoline-3-carboxylic acid], in data set [1], the “Average score in GPMT” value came out at 0. In addition, in the data set with E. coli NIHJ, the MIC was 0.025 µg/mL (≈ 0.0596 µM). The compound further gave an MIC with S. epidermidis, 56500 of 0.1 µg/mL (≈ 0.238 µM). Besides, the “mechanism-based inhibition (MBI) of CYP3A4” value at CYP3A4 is listed as “weak inhibition”. In data set [2] (male, Crj:CD IGS), the “Excretion rate in urine, times higher than Comparative compound 1” value is “about 1.5 times”; the “serum concentration and tissue concentration, times higher than Comparative compound 1” value was “about 2 times”. Also, in data set [2] (male, Crj:CD IGS, 5 mg/kg), the “Recovery (%) in urine in relation to the amount administered, Recovery (%) including conjugate” value was determined as 32.0%; the “Tissue AUC0-8 h, Kidney” value turned out to be 27800 ng·h/mL; the “Tissue AUC0-8 h, Liver” value worked out at 32100 ng·h/mL; the “Tissue AUC0-8 h, Lung” value stood at 13700 ng·h/mL. Further, in data set [2] (male, Crj:CD IGS, 5 mg/kg), the “Tissue Cmax, Kidney” value came to 9.88 µg/g; the “Tissue Cmax, Liver” value amounted to 13.7 µg/g; the “Tissue Cmax, Lung” value amounted to 3.86 µg/g. In data set [2], the “AUC value, times higher than Comparative compound 1” value is 1.5-2 times. For the same compound, the “convulsant activity (animals affected / 6 animals per group)” value in data set [3] (5 μg/mouse intracisternal) is recorded as 0/6. In addition, the “convulsant activity (animals affected / 6 animals per group)” value in data set [3] (15 μg/mouse intracisternal) is 2/6. For the same compound, the “convulsant activity (animals affected / 6 animals per group)” value in data set [3] (50 μg/mouse intracisternal) is 6/6.
